Reference: patent publication US5859026A, “Quinoline carboxylic acid” (priority 1995, dated 1999)
Values after ≈ are worked out from the molar mass of the structure shown.

Assays:
E. colacae 963 = assay: Antibacterial activity (MIC), standard strain; assay type: cell-based; conditions: Enterobacter cloacae; standard strain E. colacae 963, Gram -, 10^6 viable cells per ml; read-out: minimum inhibitory concentration (MIC)
Experimental: (§1) 1. Antibacterial spectrum against standard strains and clinically isolated strains
Antibacterial activities (minimum inhibitory concentration: MIC) were determined according to the standard method of the Japan Society of Chemotherapy (Chemotherapy (Tokyo), 29 (1), 76, 1981) by using standard strains and strains isolated from patients of infectious disease (clinically isolated strains) and applying 10^6 viable cells per ml. […].

[1] = test system: Chinese hamster lung cell line (CHL cell); assay: Chromosomal aberration test; assay type: cell-based; conditions: 100 μg/ml, 6 hours treatment at 37° C., then 18 hours in fresh medium
Experimental: 2. Chromosomal aberration test
The experiments were carried out using a Chinese hamster lung cell line (CHL cell). The test compounds prepared were added to cultured cells, and cultivation was continued for 6 hours at 37° C. in 5% CO2. 2-(2-furyl)-3-(5-nitro-2-furyl) acrylamide was used as a positive control. After the cultivation for 6 hours, the cells were washed and added with fresh medium, and then cultivation was further continued for 18 hours. Colcemide solution was added to the culture 2 hours before the completion of the cultivation, and the chromosomal specimens were prepared after the cultivation was completed. Incidence rates of aberration cells were measured at the treatments with 100 μg/ml of the test compounds.

S. marcescens IAM 1184 = assay: Antibacterial activity (MIC), standard strain; assay type: cell-based; conditions: Serratia marcescens, IAM1184; standard strain S. marcescens IAM 1184, Gram -, 10^6 viable cells per ml; read-out: minimum inhibitory concentration (MIC)
Source text: as §1

K. pneumoniae PCI-602 = assay: Antibacterial activity (MIC), standard strain; assay type: cell-based; conditions: Klebsiella pneumoniae, PCI602; standard strain K. pneumoniae PCI-602, Gram -, 10^6 viable cells per ml; read-out: minimum inhibitory concentration (MIC)
Source text: as §1

S. aureus FDA 209P JC-1 = assay: Antibacterial activity (MIC), standard strain; assay type: cell-based; conditions: Staphylococcus aureus, FDA209P; standard strain S. aureus FDA 209P JC-1, Gram +, 10^6 viable cells per ml; read-out: minimum inhibitory concentration (MIC)
Source text: as §1

E. coli NIHJ JC-2 = assay: Antibacterial activity (MIC), standard strain; assay type: cell-based; conditions: Escherichia coli, NIHJJC2; standard strain E. coli NIHJ JC-2, Gram -, 10^6 viable cells per ml; read-out: minimum inhibitory concentration (MIC)
Source text: as §1

Male Hartley guinea pigs = assay: Phototoxicity; assay type: in vivo, guinea pig; conditions: 10 mg/kg intravenous, UV exposure 90 minutes, observed 24 hours after irradiation
Experimental: Male Hartley guinea pigs were intravenously administered with test compounds at a dose of 10 mg/kg, and then immediately exposed to WVA on their backs for 90 minutes. Erythemas on the UV irradiated skin were observed 24 hours after the irradiation.

S. aureus HPC527 = assay: Antibacterial activity (MIC), clinically isolated strain; assay type: cell-based; conditions: Staphylococcus aureus; clinical isolate S. aureus HPC527, Gram +, 10^6 viable cells per ml; read-out: minimum inhibitory concentration (MIC)
Source text: as §1

A. calcoaceticus HNR904 = assay: as above; assay type: cell-based; conditions: Acinetobacter calcoaceticus; clinical isolate A. calcoaceticus HNR904, Gram -, 10^6 viable cells per ml; read-out: minimum inhibitory concentration (MIC)
Source text: as §1

S. marcescens HNR1792 = assay: as above; assay type: cell-based; conditions: Serratia marcescens; clinical isolate S. marcescens HNR1792, Gram -, 10^6 viable cells per ml; read-out: minimum inhibitory concentration (MIC)
Source text: as §1

S. aureus HPC308 = assay: as above; assay type: cell-based; conditions: Staphylococcus aureus; clinical isolate S. aureus HPC308, Gram +, 10^6 viable cells per ml; read-out: minimum inhibitory concentration (MIC)
Source text: as §1

E. cloacae HNR1946 = assay: as above; assay type: cell-based; conditions: Enterobacter cloacae; clinical isolate E. cloacae HNR1946, Gram -, 10^6 viable cells per ml; read-out: minimum inhibitory concentration (MIC)
Source text: as §1

E. faecalis HPC948 = assay: as above; assay type: cell-based; conditions: Enterococcus faecalis; clinical isolate E. faecalis HPC948, Gram +, 10^6 viable cells per ml; read-out: minimum inhibitory concentration (MIC)
Source text: as §1

S. marcescens HNR1544 = assay: as above; assay type: cell-based; conditions: Serratia marcescens; clinical isolate S. marcescens HNR1544, Gram -, 10^6 viable cells per ml; read-out: minimum inhibitory concentration (MIC)
Source text: as §1

E. cloacae HNR1939 = assay: as above; assay type: cell-based; conditions: Enterobacter cloacae; clinical isolate E. cloacae HNR1939, Gram -, 10^6 viable cells per ml; read-out: minimum inhibitory concentration (MIC)
Source text: as §1

K. pneumoniae HNR869 = assay: as above; assay type: cell-based; conditions: Klebsiella pneumoniae; clinical isolate K. pneumoniae HNR869, Gram -, 10^6 viable cells per ml; read-out: minimum inhibitory concentration (MIC)
Source text: as §1

K. pneumoniae HNR858 = assay: as above; assay type: cell-based; conditions: Klebsiella pneumoniae; clinical isolate K. pneumoniae HNR858, Gram -, 10^6 viable cells per ml; read-out: minimum inhibitory concentration (MIC)
Source text: as §1

S. aureusHPC292 = assay: as above; assay type: cell-based; conditions: Staphylococcus aureus; clinical isolate S. aureus HPC292, Gram +, 10^6 viable cells per ml; read-out: minimum inhibitory concentration (MIC)
Source text: as §1

A. calcoaceticus HNR916 = assay: as above; assay type: cell-based; conditions: Acinetobacter calcoaceticus; clinical isolate A. calcoaceticus HNR916, Gram -, 10^6 viable cells per ml; read-out: minimum inhibitory concentration (MIC)
Source text: as §1

E. faecalis HPC975 = assay: as above; assay type: cell-based; conditions: Enterococcus faecalis; clinical isolate E. faecalis HPC975, Gram +, 10^6 viable cells per ml; read-out: minimum inhibitory concentration (MIC)
Source text: as §1

E. faecalis HPC984 = assay: as above; assay type: cell-based; conditions: Enterococcus faecalis; clinical isolate E. faecalis HPC984, Gram +, 10^6 viable cells per ml; read-out: minimum inhibitory concentration (MIC)
Source text: as §1

E. cloacae HNR1941 = assay: as above; assay type: cell-based; conditions: Enterobacter cloacae; clinical isolate E. cloacae HNR1941, Gram -, 10^6 viable cells per ml; read-out: minimum inhibitory concentration (MIC)
Source text: as §1

male ICR mice = assay: Induction of convulsions, intraperitoneal (i.p.) administration; assay type: in vivo, mouse; conditions: 100 mg/kg i.p., 30 minutes after oral fenbufen 100 mg/kg
Source text: 4. The induction of convulsions
1) Intraperitoneal (i.p.) administration

K. pneumoniae HNR828 = assay: Antibacterial activity (MIC), clinically isolated strain; assay type: cell-based; conditions: Klebsiella pneumoniae; clinical isolate K. pneumoniae HNR828, Gram -, 10^6 viable cells per ml; read-out: minimum inhibitory concentration (MIC)
Source text: as §1

S. marcescens HNR1767 = assay: as above; assay type: cell-based; conditions: Serratia marcescens; clinical isolate S. marcescens HNR1767, Gram -, 10^6 viable cells per ml; read-out: minimum inhibitory concentration (MIC)
Source text: as §1

A. calcoaceticus HNR939 = assay: as above; assay type: cell-based; conditions: Acinetobacter calcoaceticus; clinical isolate A. calcoaceticus HNR939, Gram -, 10^6 viable cells per ml; read-out: minimum inhibitory concentration (MIC)
Source text: as §1

Structure (SMILES) | MIC (E. colacae 963) [µg/mL] | MIC (S. marcescens IAM 1184) [µg/mL] | MIC (K. pneumoniae PCI-602) [µg/mL] | MIC (S. aureus FDA 209P JC-1) [µg/mL] | MIC (E. coli NIHJ JC-2) [µg/mL] | MIC (S. aureus HPC527) [µg/mL] | MIC (A. calcoaceticus HNR904) [µg/mL] | MIC (S. marcescens HNR1792) [µg/mL] | MIC (S. aureus HPC308) [µg/mL] | MIC (E. cloacae HNR1946) [µg/mL] | MIC (E. faecalis HPC948) [µg/mL] | MIC (S. marcescens HNR1544) [µg/mL] | MIC (E. cloacae HNR1939) [µg/mL] | MIC (K. pneumoniae HNR869) [µg/mL] | MIC (K. pneumoniae HNR858) [µg/mL] | MIC (S. aureusHPC292) [µg/mL] | MIC (A. calcoaceticus HNR916) [µg/mL] | MIC (E. faecalis HPC975) [µg/mL] | MIC (E. faecalis HPC984) [µg/mL] | MIC (E. cloacae HNR1941) [µg/mL] | further results
Cc1c(N2C[C@@H](N)[C@@H](C)C2)c(F)c(N)c2c(=O)c(C(=O)O)cn(C3CC3)c12 [Compound 1, 5-amino-7-((3S,4S)-3-amino-4-methyl-1-pyrrolidinyl)-1-cyclopropyl-6-fluoro-1,4-dihydro-8-methyl-4-oxoquinoline-3-carboxylic acid] | 0.012 (≈ 0.032 µM) | 0.05 (≈ 0.134 µM) | 0.0008 (≈ 0.00214 µM) | 0.006 (≈ 0.016 µM) | 0.006 (≈ 0.016 µM) | 0.006 (≈ 0.016 µM) | 1.56 (≈ 4.17 µM) | 1.56 (≈ 4.17 µM) | 0.2 (≈ 0.534 µM) | 0.1 (≈ 0.267 µM) | 0.1 (≈ 0.267 µM) | 0.025 (≈ 0.0668 µM) | 0.1 (≈ 0.267 µM) | 0.78 (≈ 2.08 µM) | 0.1 (≈ 0.267 µM) | 0.78 (≈ 2.08 µM) | 0.006 (≈ 0.016 µM) | 0.78 (≈ 2.08 µM) | 0.05 (≈ 0.134 µM) | 3.13 (≈ 8.36 µM) | incidence rate of the aberration cells [1]: less than 10%; Phototoxicity (in words) (Male Hartley guinea pigs): induced no phototoxicity; Phototoxicity (number of guinea pigs with erythemas) (Male Hartley guinea pigs; animals with erythemas/animals tested): 0/5; Induction of convulsions, i.p. (in words) (male ICR mice): did not induce convulsions; Induction of convulsion, i.p. (number of mice with convulsions) (male ICR mice; animals with convulsions/animals tested): 0/6
CC[C@H]1CN(c2c(F)c(N)c3c(=O)c(C(=O)O)cn(C4CC4)c3c2C)C[C@H]1N [Compound 2, 5-amino-7-((3S,4S)-3-amino-4-ethyl-1-pyrrolidinyl)-1-cyclopropyl-6-fluoro-1,4-dihydro-8-methyl-4-oxoquinoline-3-carboxylic acid] | 0.025 (≈ 0.0644 µM) | 0.1 (≈ 0.257 µM) | ≤ 0.0015 | 0.006 (≈ 0.0154 µM) | 0.012 (≈ 0.0309 µM) | 0.006 (≈ 0.0154 µM) | 3.13 (≈ 8.06 µM) | 1.56 (≈ 4.02 µM) | 0.1 (≈ 0.257 µM) | 0.2 (≈ 0.515 µM) | 0.2 (≈ 0.515 µM) | 0.05 (≈ 0.129 µM) | 0.2 (≈ 0.515 µM) | 1.56 (≈ 4.02 µM) | 0.2 (≈ 0.515 µM) | 0.78 (≈ 2.01 µM) | 0.012 (≈ 0.0309 µM) | 0.78 (≈ 2.01 µM) | 0.05 (≈ 0.129 µM) | 6.25 (≈ 16.1 µM) | MIC (K. pneumoniae HNR828): 3.13 µg/mL (≈ 8.06 µM); MIC (S. marcescens HNR1767): 12.5 µg/mL (≈ 32.2 µM); MIC (A. calcoaceticus HNR939): 0.2 µg/mL (≈ 0.515 µM)
